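1) Cells in 96-well plates. 2) Compound, 48 h, 5 concentrations. 3) Linear interpolation between surrounding doses. 4) Unreached endpoint = highest concentration. Abbreviation: GI50, concentration required for 50% inhibition of growth.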 Active and inactive are the calls of the source. Rule as the data show it: active = GI50 up to about 1.1 µM and inactive = higher.
Columns and labels:
Assay in all cases: DTP human tumour cell line panel, 48 h
M14 = tested on: M14
SR = tested on: SR
PC-3 = tested on: PC-3
SK-MEL-2 = tested on: SK-MEL-2
SK-MEL-28 = tested on: SK-MEL-28
SW-620 = tested on: SW-620
HOP-92 = tested on: HOP-92
UACC-257 = tested on: UACC-257
SF-268 = tested on: SF-268
SK-OV-3 = tested on: SK-OV-3
COLO 205 = tested on: COLO 205
KM12 = tested on: KM12
HL-60 = tested on: HL-60
MDA-N = tested on: MDA-N
U-251 = tested on: U-251
NCI-H522 = tested on: NCI-H522
OVCAR-4 = tested on: OVCAR-4
OVCAR-3 = tested on: OVCAR-3
NCI-H23 = tested on: NCI-H23
A498 = tested on: A498

Row | Structure (SMILES) | GI50 (M14) | GI50 (SR) | GI50 (PC-3) | GI50 (SK-MEL-2) | GI50 (SK-MEL-28) | GI50 (SW-620) | GI50 (HOP-92) | GI50 (UACC-257) | GI50 (SF-268) | GI50 (SK-OV-3) | GI50 (COLO 205) | GI50 (KM12) | GI50 (HL-60) | GI50 (MDA-N) | GI50 (U-251) | GI50 (NCI-H522) | GI50 (OVCAR-4) | GI50 (OVCAR-3) | GI50 (NCI-H23) | GI50 (A498)
1 | N=c1oc2ccccc2cc1-c1nc2ccccc2c(=O)[nH]1 | > 100 µM (inactive) | 42.9 µM (inactive) | > 100 µM (inactive) | 58.9 µM (inactive) | > 100 µM (inactive) | 72.3 µM (inactive) | 20 µM (inactive) | > 100 µM (inactive) | 29 µM (inactive) | > 100 µM (inactive) | > 100 µM (inactive) | 39.8 µM (inactive) | 45.7 µM (inactive) | > 100 µM (inactive) | 32 µM (inactive) | 14.7 µM (inactive) | > 100 µM (inactive) | – | – | –
2 | Cc1ccc(/C=C2\NC(=S)NC2=O)cc1 | > 100 µM (inactive) | – | > 100 µM (inactive) | > 100 µM (inactive) | > 100 µM (inactive) | > 100 µM (inactive) | – | – | > 100 µM (inactive) | > 100 µM (inactive) | > 100 µM (inactive) | > 100 µM (inactive) | – | > 100 µM (inactive) | > 100 µM (inactive) | > 100 µM (inactive) | 62.8 µM (inactive) | > 100 µM (inactive) | > 100 µM (inactive) | –
3 | O=C1NC(N2CCCCC2)=N/C1=C\c1ccc(Cl)cc1 | 66.8 µM (inactive) | > 100 µM (inactive) | 37.1 µM (inactive) | > 100 µM (inactive) | 92 µM (inactive) | 68.4 µM (inactive) | 13 µM (inactive) | 36.6 µM (inactive) | 38.2 µM (inactive) | > 100 µM (inactive) | 74.5 µM (inactive) | 25.1 µM (inactive) | > 100 µM (inactive) | 71 µM (inactive) | 44.5 µM (inactive) | 21 µM (inactive) | 68.4 µM (inactive) | 26.4 µM (inactive) | 37.2 µM (inactive) | –
4 | CNC(C#N)c1ccc(OC)cc1 (stereo not drawn) | > 100 µM (inactive) | – | 54 µM (inactive) | 26.4 µM (inactive) | > 100 µM (inactive) | 94.2 µM (inactive) | 92.5 µM (inactive) | 54.8 µM (inactive) | > 100 µM (inactive) | > 100 µM (inactive) | 71.3 µM (inactive) | 78.9 µM (inactive) | 28.6 µM (inactive) | 33.1 µM (inactive) | 53.3 µM (inactive) | 75.5 µM (inactive) | > 100 µM (inactive) | 61 µM (inactive) | > 100 µM (inactive) | > 100 µM (inactive)
5 | COc1ccc(COC(=O)NNC(=O)C2CSC(c3ccccc3)N2C(C)=O)cc1 (stereo not drawn) | > 100 µM (inactive) | – | > 100 µM (inactive) | > 100 µM (inactive) | – | > 100 µM (inactive) | > 100 µM (inactive) | > 100 µM (inactive) | > 100 µM (inactive) | > 100 µM (inactive) | – | > 100 µM (inactive) | > 100 µM (inactive) | > 100 µM (inactive) | > 100 µM (inactive) | > 100 µM (inactive) | > 100 µM (inactive) | > 100 µM (inactive) | > 100 µM (inactive) | > 100 µM (inactive)
6 | CC(=O)N1CCN(C23OC4(N5CCN(C(C)=O)CC5)C5C6CC(C7C6C4C72)C53)CC1 (stereo not drawn) | > 100 µM (inactive) | > 100 µM (inactive) | > 100 µM (inactive) | > 100 µM (inactive) | – | > 100 µM (inactive) | > 100 µM (inactive) | > 100 µM (inactive) | > 100 µM (inactive) | > 100 µM (inactive) | > 100 µM (inactive) | > 100 µM (inactive) | > 100 µM (inactive) | > 100 µM (inactive) | > 100 µM (inactive) | > 100 µM (inactive) | > 100 µM (inactive) | > 100 µM (inactive) | > 100 µM (inactive) | –
7 | Cn1cc(S(=O)(=O)NC(=O)Nc2ccc(Cl)cc2)c(=O)c2ccc(Cl)cc21 | > 100 µM (inactive) | 43.8 µM (inactive) | 76.6 µM (inactive) | > 100 µM (inactive) | > 100 µM (inactive) | > 100 µM (inactive) | – | > 100 µM (inactive) | > 100 µM (inactive) | > 100 µM (inactive) | – | 69.7 µM (inactive) | – | > 100 µM (inactive) | 93.1 µM (inactive) | 20.9 µM (inactive) | > 100 µM (inactive) | > 100 µM (inactive) | 70 µM (inactive) | –
8 | Cc1c2c(C#N)nccc2c(C)c2c1c1ccccc1n2Cc1ccccc1 | > 100 µM (inactive) | 36.1 µM (inactive) | > 100 µM (inactive) | > 100 µM (inactive) | > 100 µM (inactive) | > 100 µM (inactive) | 77.8 µM (inactive) | > 100 µM (inactive) | > 100 µM (inactive) | > 100 µM (inactive) | > 100 µM (inactive) | > 100 µM (inactive) | > 100 µM (inactive) | > 100 µM (inactive) | > 100 µM (inactive) | – | > 100 µM (inactive) | > 100 µM (inactive) | > 100 µM (inactive) | –
9 | Nc1ccc(-c2nc3cc(F)ccc3s2)cc1CO | > 49.5 µM (inactive) | – | 29.8 µM (inactive) | 23.9 µM (inactive) | > 100 µM (inactive) | > 100 µM (inactive) | 17.3 µM (inactive) | > 69.3 µM (inactive) | 23.8 µM (inactive) | 16.7 µM (inactive) | > 100 µM (inactive) | > 100 µM (inactive) | > 76.9 µM (inactive) | > 100 µM (inactive) | 16.4 µM (inactive) | 41.7 µM (inactive) | > 100 µM (inactive) | 36.2 µM (inactive) | 0.436 µM (active) | 0.0102 µM (active)
10 | O=C(Nc1ccn(C2CC(O)C(CO)O2)c(=O)n1)c1ccccc1 (stereo not drawn) | > 100 µM (inactive) | – | > 100 µM (inactive) | > 100 µM (inactive) | > 100 µM (inactive) | > 100 µM (inactive) | – | > 100 µM (inactive) | > 100 µM (inactive) | > 100 µM (inactive) | > 100 µM (inactive) | > 100 µM (inactive) | > 100 µM (inactive) | > 100 µM (inactive) | > 100 µM (inactive) | > 100 µM (inactive) | > 100 µM (inactive) | > 100 µM (inactive) | > 100 µM (inactive) | > 100 µM (inactive)
11 | C=CCNC(=O)NC(=O)CSC1=NC(=O)C2(NN1)c1ccccc1-c1ccccc12 | > 10 µM (inactive) | > 10 µM (inactive) | > 10 µM (inactive) | – | > 10 µM (inactive) | > 10 µM (inactive) | > 10 µM (inactive) | > 10 µM (inactive) | > 10 µM (inactive) | > 10 µM (inactive) | > 10 µM (inactive) | > 10 µM (inactive) | > 10 µM (inactive) | > 10 µM (inactive) | – | > 10 µM (inactive) | > 10 µM (inactive) | – | > 10 µM (inactive) | –
12 | O=C1c2ccccc2-c2nc(-c3ccncc3)cc3c2c1nc1ccccc13 | 3.21 µM (inactive) | 2.38 µM (inactive) | 13.3 µM (inactive) | 11.3 µM (inactive) | 32.3 µM (inactive) | 24.3 µM (inactive) | > 100 µM (inactive) | 19.1 µM (inactive) | – | > 100 µM (inactive) | 22.3 µM (inactive) | 11.8 µM (inactive) | 11 µM (inactive) | 17.4 µM (inactive) | 14.9 µM (inactive) | 10.7 µM (inactive) | 27.3 µM (inactive) | 1.52 µM (inactive) | 15.3 µM (inactive) | –
13 | CCCCCCCCCCCCCCCCCCNc1nc(=O)n(C2CC(O)C(COP(=O)(O)O)O2)cc1F (stereo not drawn) | > 100 µM (inactive) | – | 26.1 µM (inactive) | > 100 µM (inactive) | > 100 µM (inactive) | > 100 µM (inactive) | – | > 100 µM (inactive) | 49.4 µM (inactive) | > 100 µM (inactive) | > 67.1 µM (inactive) | > 72.8 µM (inactive) | – | > 100 µM (inactive) | > 100 µM (inactive) | > 100 µM (inactive) | > 100 µM (inactive) | > 100 µM (inactive) | 58.1 µM (inactive) | 6.27 µM (inactive)
14 | Cc1cccc(-c2nc(-c3cnccn3)n(Cc3ccccc3)n2)c1 | > 100 µM (inactive) | > 100 µM (inactive) | > 100 µM (inactive) | – | 68.5 µM (inactive) | > 100 µM (inactive) | 34 µM (inactive) | > 100 µM (inactive) | > 100 µM (inactive) | 65.6 µM (inactive) | > 100 µM (inactive) | > 100 µM (inactive) | > 100 µM (inactive) | > 100 µM (inactive) | > 100 µM (inactive) | > 100 µM (inactive) | 27.2 µM (inactive) | > 100 µM (inactive) | > 100 µM (inactive) | –
15 | CN(CCCCN(C)CCc1ccc(Cl)c(Cl)c1)CCCCN1CCCC1 | 0.787 µM (active) | – | 1.57 µM (inactive) | 1.63 µM (inactive) | 0.533 µM (active) | 1.21 µM (inactive) | 1.26 µM (inactive) | 1.63 µM (inactive) | 1.46 µM (inactive) | 2.18 µM (inactive) | 1.29 µM (inactive) | 0.705 µM (active) | 1.49 µM (inactive) | 1.26 µM (inactive) | 0.745 µM (active) | 0.977 µM (active) | 1.83 µM (inactive) | 2.05 µM (inactive) | 1.71 µM (inactive) | 1.72 µM (inactive)
16 | CCCCCCCCCCCCCCCCOCC(CCl)OP(=O)(O)OP(=O)(O)OCC1OC(n2ccc(N)nc2=O)C(O)C1O (stereo not drawn) | > 100 µM (inactive) | – | 87.7 µM (inactive) | > 100 µM (inactive) | 99.3 µM (inactive) | > 100 µM (inactive) | > 100 µM (inactive) | > 100 µM (inactive) | > 100 µM (inactive) | > 100 µM (inactive) | > 100 µM (inactive) | > 100 µM (inactive) | > 100 µM (inactive) | > 100 µM (inactive) | > 100 µM (inactive) | > 100 µM (inactive) | > 100 µM (inactive) | > 100 µM (inactive) | > 100 µM (inactive) | > 100 µM (inactive)

Source: ChEMBL document CHEMBL1201862, “PubChem BioAssay data set” (2004)
